pIC50: −log10 of the molar value.
Tests used:
[1] = test system: hepatocytes; assay: Cell viability by 51Cr release; assay type: cell-based, rat; set-up: concentration or dose not given beside the values
Method: (§1) Cytotoxic effects of the microspheres of EXAMPLE 3 and free doxorubicin were investigated using short-term monolayer cultures established from the livers of normal rats and rats which had been fed 2-AAF or DEN. Cell viability was evaluated by trypan blue exclusion and confirmed by ^51 Cr release.
(§2) Male Fischer 344 rats weighing 150 to 200 g were used to obtain viable hepatocytes. The animals were fed a basal, high-casein diet. A 12-hr light cycle was maintained in the animal colony and water was given ad libitum. Carcinogen altered hepatocytes were produced by feeding the animals a diet containing 0.02% 2-AAF (w/w) or 80 ppm DEN in the drinking water for 8 to 12 weeks. Cells from such animals were used in the cytotoxicity and cell viability studies reported herein.
(§3) Liver cell suspensions were prepared by the collagenase perfusion technique. Cell suspensions were passed through sterile gauze filters to remove large tissue pieces. Viability was assessed by trypan blue exclusion and perfusates containing less than 65% viable cells were not used. Cells were plated at density of 1×10^6 viable cells per plastic culture flask of 25 cm^2 surface area in 4 ml of L-15 medium containing 3.5 mg/ml 4-(2-hydroxyethyl)-1-piperazineethanesulfonic acid and 2 mg/ml bovine serum albumin. The medium was supplemented with 10% fetal bovine serum, 100 μg/ml penicillin, and streptomycin. Following a 2 hour attachment period at 37° in a water-saturated 5% CO2 -95% air incubator, the cells were washed twice with medium and placed in 4ml of fresh medium supplemented with 200 μl PBS, free doxorubicin, uncoupled microspheres, or the polymer bound drug. At various times 0.8 ml of trypan blue was added to each flask and incubated for 10 minutes at 37°. The medium was removed and the number of viable cells was counted.
^51 Cr in the form of sodium chromate in sterile isotonic saline was added to the cell suspensions at a concentration of 100 μCi/0.5 ml/5×10^6 cells. The cells were then incubated at 37° for 1 hour with constant shaking. After labeling, the supernatent was removed by centrifugation at 350×g for 5 min and the cells were washed a minimum of 5 times in L-15 medium. Labeled cells were then aliquoted into culture flasks and allowed to attach as previously described. At various times 250 μl aliquots were removed from the flasks and counted in a Packard Gamma Counter. As a control for complete ^51 Cr release, 0% cell viability, cells were detached from the culture flask surface with 10% trypsin and subsequently lysed with 0.5% Nonidet P-40 followed by sonication. Total ^51 Cr release was obtained by subtraction of the residual radioactivity which remained associated with the cell debris.

[2] = test system: hepatocytes; assay: Cell viability by trypan blue exclusion (Table 2); assay type: cell-based, rat; set-up: concentration or dose not given beside the values
Method: as §1, §2, §3

[3] = Time-survival response, trypan blue viability; assay type: cell-based; settings: rat, hepatocytes, 10^-6 M
Excerpt: as §2, §3
These studies are not continued for longer than 24 hours due to the rapid natural decline in viability observed with untreated cells after prolonged cell culture. The viability of untreated control cultures remained constant throughout each experiment. […] However, cell viability in the presence of free drug was not affected during the first 4 hours of treatment. Alternatively, at 24 hours only 10% of the cells treated with free drug remained viable while 64% of those treated with the bound drug were unaffected. Cell viability was not influenced by addition of uncoupled microspheres to the cultures.

[4] = test system: hepatocytes made resistant by 2-AAF feeding; assay: Viability of carcinogen altered drug-resistant hepatocytes; assay type: cell-based, rat; settings: for viability at 1 µM: 10^-6 M
Excerpt: as §2, §3
Hepatocytes in perfusates obtained from rats which had been fed the dietary carcinogen 2-AAF are highly resistant to the cytocidal effects of doxorubicin. Experiments were performed to determine the toxicity of the doxorubicin microspheres with regard to these resistant hepatocytes. […] Concentrations of free doxorubicin must be approximately 100-fold higher than the polymer-bound drug to decrease viability to 50%. The most significant differences in cytotoxicity occurred at a concentration of 10^-5 M where the free drug treated hepatocytes remained unaffected and polymer-bound doxorubicin decreased viability to 47%. Subsequent experiments were done with 10^-6 M, free or bound drug, to approach clinically relevant concentrations.
Cell kill kinetics of hepatocytes made resistant by 2-AAF feeding are depicted in TABLE 5. […] At 24 hours, only 67% of the cells remained viable. When hepatocytes made resistant by DEN feeding were used, the same results for free and polymer-bound Adr at 10^-6 M were obtained.

[5] = test system: hepatocytes made resistant by DEN feeding; assay: as above; assay type: cell-based, rat; settings: 24 hours; 10^-6 M
Excerpt: as §2
Liver cell suspensions were prepared by the collagenase perfusion technique. Cell suspensions were passed through sterile gauze filters to remove large tissue pieces. Viability was assessed by trypan blue exclusion and perfusates containing less than 65% viable cells were not used. Cells were plated at density of 1×10^6 viable cells per plastic culture flask of 25 cm^2 surface area in 4 ml of L-15 medium containing 3.5 mg/ml 4-(2-hydroxyethyl)-1-piperazineethanesulfonic acid and 2 mg/ml bovine serum albumin. The medium was supplemented with 10% fetal bovine serum, 100 μg/ml penicillin, and streptomycin. […] The medium was removed and the number of viable cells was counted. […]

[6] = test system: CCRF-CEM/Vbl 100; assay: Cytostatic assay, IC50 determination; assay type: cell-based; settings: Homo sapiens, after 4 to 6 doubling times, average of three determinations
Method: (§4) In order to test the cytostatic activity of the microspheres, IC50 determinations were made with both the free drug and the drug-polymer complexes. All cell lines were maintained in suspension cultures in RPMI-1640 medium supplemented with the 2% fetal calf serum, 8% newborn calf serum, 0.5 mg/ml penicillin-streptomycin, and 0.015 mg/ml fungizone. The cells were diluted to 40,000 cells/assay/1.8 ml medium and an amount of free doxorubicin, doxorubicin-microspheres or plain microspheres was added in 0.2 ml of phosphate buffered saline. After 4 to 6 doubling times had elapsed, the remaining cells were counted on a Coulter counter. A ratio of the number of cells after incubation per the number of cells originally introduced (Nt/No) was obtained. The drug concentration required for 50% inhibition of cell growth (IC50) was calculated according to the formula [formula]

[7] = test system: CCRF-CEM/Vbl 500; assay: Cytostatic assay, IC50 determination; assay type: cell-based; settings: Homo sapiens, after 4 to 6 doubling times, average of three determinations
Method: as §4

[8] = test system: CCRF-CEM; assay: Cytostatic assay, IC50 determination; assay type: cell-based; settings: Homo sapiens, after 4 to 6 doubling times, average of three determinations
Method: as §4

[9] = test system: L1210; assay: Cytostatic assay, IC50 determination; assay type: cell-based; settings: Mus musculus, after 4 to 6 doubling times, average of three determinations
Method: as §4

[10] = test system: S-180; assay: Cytostatic assay, IC50 determination; assay type: cell-based; settings: after 4 to 6 doubling times, average of three determinations
Method: as §4

[11] = test system: CEM/Vbl 100; assay: Growth inhibition study; assay type: cell-based, human; settings: 3-6 doubling times
Method: (§5) Cell lines used were the human leukemia clones CCRF-CEM/Vbl 500 and CCRF-CEM/Vbl 100 and rat liver cancer cells (RLC). All cultures were maintained in RPMI-1640 medium supplemented with fetal calf serum (2%), newborn calf serum (8%), penicillin-streptomycin (0.5 mg/ml), and fungizone (0.015 mg/ml) (Flow Laboratories Inc.). Suspension cultures were diluted to 4×10^4 cells/assay/1.8 ml medium and attached cell lines were plated at 2.5×10^5 cells/25 cm^2 growth area/3.6 ml medium. Appropriate quantities of free doxorubicin, microsphere coupled doxorubicin, plain polyglutaraldehyde microspheres, or PBS, were added and the assays were incubated for 3-6 doubling times at 37° in a 5% CO2 - 95% air incubator. Cells were then counted on a Model Zb Coulter counter and a ratio of total number of cells after incubation per number of cells originally introduced (Nt /No) was obtained.
(§6) The cell lines CEM/Vbl 100 and CEM/Vbl 500 were used in cytostatic assays to determine differences in growth inhibition properties between free doxorubicin and polymer-bound drug. Both cell lines are resistant to the effects of vinca alkaloids and are cross-resistant to Adr. […] However, using 10^-7 M of the coupled drug, the growth inhibition for both cell lines is greater than 50%. At 10^-8 M, polymer bound doxorubicin inhibits growth 4-10 times more effectively than free drug. […] Each experiment was performed three times and drug concentrations were tested in duplicate.

[12] = test system: CEM/Vbl 500; assay: Growth inhibition study; assay type: cell-based, human; settings: Table 7, CEM/Vbl 100
Method: as §5, §6

[13] = test system: rat liver cancer cell line RLC; assay: Growth inhibition study; assay type: cell-based
Method: as §5
The cytostatic activity of the drug polymer complex of EXAMPLE 3 was further investigated using the rat liver cancer cell line RLC. […] Furthermore, the Adr-PGLs retained growth inhibition properties at concentrations as low as 1×10^-9 M.

[14] = Homo sapiens, CEM/VBL100, 10^-5 M
[15] = Homo sapiens, CEM/VBL100, 10^-6 M
[16] = Homo sapiens, CEM/VBL100, 10^-7 M
[17] = Homo sapiens, CEM/VBL100, 10^-8 M
[18] = Homo sapiens, CEM/VBL100, 10^-9 M
[19] = Homo sapiens, CEM/VBL100, 10^-10 M

## COc1cccc2c1C(=O)c1c(O)c3c(c(O)c1C2=O)C[C@@](O)(C(=O)CO)C[C@@H]3O[C@H]1C[C@H](N)[C@H](O)[C@H](C)O1 [Free doxorubicin, doxorubicin]
[1]; incubation time 3 hr
  Percent viability measured by Intracellular CR^51: 100%
[1]; incubation time 5 hr
  Percent viability measured by Intracellular CR^51: 96%
[1]; incubation time 8 hr
  Percent viability measured by Intracellular CR^51: 86%
[1]; incubation time 12 hr
  Percent viability measured by Intracellular CR^51: 75%
[1]; incubation time 18 hr
  Percent viability measured by Intracellular CR^51: 57%
[2]; incubation time 3 hr
  Percent viability measured by Dye Exclusion: 100%
[2]; incubation time 5 hr
  Percent viability measured by Dye Exclusion: 99%
[2]; incubation time 8 hr
  Percent viability measured by Dye Exclusion: 81%
[2]; incubation time 12 hr
  Percent viability measured by Dye Exclusion: 72%
[2]; incubation time 18 hr
  Percent viability measured by Dye Exclusion: 59%
[3]; 2 hours
  viability at 2 h, 1 µM: 99%
[3]; 4 hours
  viability at 4 h, 1 µM: 98%
[3]; 6 hours
  viability at 6 h, 1 µM: 91%
[3]; 8 hours
  viability at 8 h, 1 µM: 81%
[3]; 12 hours
  viability at 12 h, 1 µM: 72%
[3]; 18 hours
  viability at 18 h, 1 µM: 59%
[3]; 24 hours
  viability at 24 h, 1 µM: 10%
[4]; 10^-5 M, 24-hr exposure, survival of attached cells compared to controls
  % Viability: unaffected
[4]; 24 hours, 10^-6 M (Table 5)
  % Viability: no detectable killing effect
[4]; Rattus norvegicus, Hepatocyte, 10^-4 M, 24-hr exposure, survival of attached cells compared to controls
  viability at 100 µM: 68%
[4]; Rattus norvegicus, Hepatocyte, 10^-5 M, 24-hr exposure, survival of attached cells compared to controls
  viability at 10 µM: 100%
[4]; Rattus norvegicus, Hepatocyte, 24-hr exposure, survival of attached cells compared to controls (Table 3)
  viability at 1 µM: 100%
[4]; Rattus norvegicus, Hepatocyte, 10^-7 M, 24-hr exposure, survival of attached cells compared to controls
  viability at 0.1 µM: 100%
[4]; Rattus norvegicus, Hepatocyte, 2 hours
  viability at 1 µM: 100%
[4]; Rattus norvegicus, Hepatocyte, 3 hours
  viability at 1 µM: 100%
[4]; Rattus norvegicus, Hepatocyte, 4 hours
  viability at 1 µM: 100%
[4]; Rattus norvegicus, Hepatocyte, 6 hours
  viability at 1 µM: 100%
[4]; Rattus norvegicus, Hepatocyte, 8 hours
  viability at 1 µM: 100%
[4]; Rattus norvegicus, Hepatocyte, 16 hours
  viability at 1 µM: 100%
[4]; Rattus norvegicus, Hepatocyte, 22 hours
  viability at 1 µM: 100%
[5]
  viability: no killing effect
[6]
  pIC50: 6.41
[7]
  pIC50: 6.49
[8]
  pIC50: 7.96
[9]
  pIC50: 7.55
[10]
  pIC50: 7.64
[11]; 10^-7 M, listed as Free Drug
  % Inhibition of growth: 22%
[11]; [14]
  inhibition at 10 µM: 98%
[11]; [15]
  inhibition at 1 µM: 86%
[11]; [16]
  inhibition at 0.1 µM: < 22%
[11]; [17]
  inhibition at 0.01 µM: 3%
[11]; [18]
  inhibition at 0.001 µM: 5%
[11]; [19]
  inhibition at 0.0001 µM: 0%
[12]; 10^-7 M, listed as Free Drug
  % Inhibition of growth: 32%
[12]; [14]
  inhibition at 10 µM: 81%
[12]; [15]
  inhibition at 1 µM: 67%
[12]; [16]
  inhibition at 0.1 µM: < 32%
[12]; [17]
  inhibition at 0.01 µM: 14%
[12]; [18]
  inhibition at 0.001 µM: 0%
[12]; [19]
  inhibition at 0.0001 µM: 0%
[12]; Homo sapiens, CEM/VBL100, 10^-11 M
  inhibition at 10 pM: 0%
[13]; 10^-3 M
  inhibition at 1000 µM: 100%
[13]; 10^-4 M
  inhibition at 100 µM: 80%
[13]; 10^-5 M
  inhibition at 10 µM: 36%
[13]; 10^-6 M
  inhibition at 1 µM: 22%
[13]; 10^-7 M
  inhibition at 0.1 µM: 0%
[13]; 10^-8 M
  inhibition at 0.01 µM: 0%
[13]; 10^-9 M
  inhibition at 0.001 µM: 0%
[13]; 10^-10 M
  inhibition at 0.0001 µM: 0%
[13]; RLC, read-out: 50% inhibitory concentration (IC50)
  pIC50: 4.74

Source: patent US4460560A, “Drug delivery by polymeric carriers” (University of Southern California, priority 1982, dated 1984)
